Assay results as given in the OligoGym collection.
“And” between values parts separate entries of the source, which are not always exact repeats. Equal values may be shown once. HELM strings list units from the 5' end as sugar, base in round brackets, then linkage (d deoxyribose, r ribose, m 2'-O-methyl, p phosphodiester). Strings are as the collection lists them, not checked against the first reports. ss, as = sense and antisense strand; [lna] = locked nucleic acid (LNA); [hna] = hexitol nucleic acid; [s4r] = 4'-thioribose; [fl2r] = 2'-fluoro

Conditions: siRNA
Also: test system not given here.

Substance	target mRNA knockdown
RNA1{r(C)p.r(C)p.r(A)p.[fl2r](G)p.r(C)p.[fl2r](G)p.r(A)p.[fl2r](G)p.r(C)p.r(C)p.r(C)p.r(A)p.r(A)p.r(A)p.r(A)p.[fl2r](G)p.r(A)p.r(A)p.r(A)p.r(T)p.r(T)}|RNA2{[fl2r](U)p.r(U)p.[fl2r](U)p.r(C)p.[fl2r](U)p.r(U)p.[fl2r](U)p.r(U)p.[fl2r](G)p.r(G)p.[fl2r](G)p.r(C)p.[fl2r](U)p.r(C)p.[fl2r](G)p.r(C)p.[fl2r](U)p.r(G)p.[fl2r](G)p.r(T)p.r(T)}$$$RNA1{StrandType:ss}|RNA2{StrandType:as}$	35%
RNA1{r(A)p.r(A)p.r(C)p.r(C)p.r(C)p.r(A)p.r(C)p.r(C)p.r(A)p.r(C)p.r(A)p.r(G)p.r(C)p.m(U)p.r(A)p.r(G)p.r(A)p.r(A)p.r(C)p.m(U)p.m(U)}|RNA2{r(A)p.r(A)p.r(G)p.r(U)p.r(U)p.r(C)p.m(U)p.r(A)p.r(G)p.r(C)p.r(U)p.r(G)p.r(U)p.r(G)p.r(G)p.r(U)p.r(G)p.r(G)p.r(G)p.r(U)p.r(U)}$$$RNA1{StrandType:ss}|RNA2{StrandType:as}$	81%
RNA1{m(G)p.r(A)p.m(G)p.r(G)p.m(A)p.r(U)p.m(G)p.r(G)p.m(A)p.r(U)p.m(U)p.r(C)p.m(G)p.r(A)p.m(C)p.r(U)p.m(U)p.r(A)p.r(G)p.r(T)p.r(T)}|RNA2{r(C)p.m(U)p.r(A)p.r(A)p.r(G)p.m(U)p.r(C)p.r(G)p.r(A)p.r(A)p.m(U)p.r(C)p.r(C)p.r(A)p.r(U)p.r(C)p.r(C)p.r(U)p.r(C)p.r(T)p.r(T)}$$$RNA1{StrandType:ss}|RNA2{StrandType:as}$	23%
RNA1{r(U)p.m(U)p.r(A)p.r(A)p.r(G)p.r(G)p.r(A)p.r(G)p.r(A)p.r(A)p.r(G)p.r(C)p.r(U)p.r(G)p.r(A)p.r(C)p.r(G)p.r(G)p.r(C)p.r(T)p.r(T)}|RNA2{r(G)p.r(C)p.r(C)p.r(G)p.r(U)p.m(C)p.r(A)p.r(G)p.r(C)p.r(U)p.r(U)p.r(C)p.r(U)p.r(C)p.r(C)p.r(U)p.m(U)p.r(A)p.r(A)p.r(T)p.r(T)}$$$RNA1{StrandType:ss}|RNA2{StrandType:as}$	83%
RNA1{r(A)p.r(U)p.r(C)p.r(C)p.m(U)p.r(G)p.m(C)p.r(A)p.r(G)p.r(A)p.r(A)p.r(G)p.r(A)p.r(A)p.r(G)p.r(C)p.r(C)p.r(U)p.r(C)p.r(T)p.r(T)}|RNA2{r(G)p.r(A)p.r(G)p.r(G)p.r(C)p.r(U)p.r(U)p.r(C)p.r(U)p.r(U)p.r(C)p.r(U)p.r(G)p.r(C)p.r(A)p.r(G)p.r(G)p.r(A)p.r(U)p.r(T)p.r(T)}$$$RNA1{StrandType:ss}|RNA2{StrandType:as}$	74%
RNA1{m(A)p.r(G)p.m(U)p.r(C)p.m(C)p.r(C)p.m(U)p.r(G)p.m(G)p.r(A)p.m(G)p.r(C)p.m(C)p.r(U)p.r(U)p.r(A)p.m(A)p.r(A)p.m(C)p.r(T)p.r(T)}|RNA2{r(G)p.r(U)p.r(U)p.r(U)p.r(A)p.r(A)p.r(G)p.r(G)p.r(C)p.r(U)p.r(C)p.r(C)p.r(A)p.r(G)p.r(G)p.r(G)p.r(A)p.r(C)p.r(U)p.r(T)p.r(T)}$$$RNA1{StrandType:ss}|RNA2{StrandType:as}$	68%
RNA1{r(G)p.r(A)p.r(C)p.r(G)p.[hna](U)p.r(A)p.r(A)p.[hna](A)p.r(C)p.r(G)p.[hna](G)p.r(C)p.r(C)p.[hna](A)p.r(C)p.r(A)p.r(A)p.r(G)p.[hna](U)p.[hna](U)p.d(T)}|RNA2{r(A)p.r(C)p.r(U)p.r(U)p.r(G)p.r(U)p.r(G)p.r(G)p.r(C)p.r(C)p.r(G)p.r(U)p.r(U)p.r(U)p.r(A)p.r(C)p.r(G)p.[hna](U)p.[hna](C)p.[hna](G)p.d(T)}$$$RNA1{StrandType:ss}|RNA2{StrandType:as}$	74.2%
RNA1{r(U)p.r(U)p.r(C)p.[fl2r](U)p.r(A)p.r(A)p.r(C)p.r(C)p.r(G)p.r(G)p.r(G)p.[fl2r](C)p.r(A)p.r(G)p.r(C)p.r(U)p.r(U)p.r(C)p.r(U)p.r(T)p.r(T)}|RNA2{r(A)p.r(G)p.r(A)p.r(A)p.r(G)p.r(C)p.[fl2r](U)p.r(G)p.r(C)p.r(C)p.r(C)p.r(G)p.r(G)p.r(U)p.[fl2r](U)p.r(A)p.r(G)p.r(A)p.r(A)p.r(T)p.r(T)}$$$RNA1{StrandType:ss}|RNA2{StrandType:as}$	71%
RNA1{[s4r](A)p.[s4r](A)p.[s4r](A)p.[s4r](C)p.[s4r](A)p.[s4r](U)p.r(G)p.r(C)p.r(A)p.r(G)p.r(A)p.r(A)p.r(A)p.[s4r](A)p.[s4r](U)p.[s4r](G)p.[s4r](C)p.[s4r](U)p.[s4r](G)p.r(T)p.r(T)}|RNA2{r(C)p.r(A)p.r(G)p.r(C)p.r(A)p.r(U)p.r(U)p.r(U)p.r(U)p.r(C)p.r(U)p.r(G)p.r(C)p.r(A)p.r(U)p.r(G)p.r(U)p.r(U)p.r(U)p.r(T)p.r(T)}$$$RNA1{StrandType:ss}|RNA2{StrandType:as}$	75.4% and 87%
RNA1{r(A)p.r(C)p.r(G)p.r(G)p.r(C)p.r(U)p.r(C)p.r(G)p.r(C)p.r(U)p.[fl2r](A)p.r(C)p.r(C)p.r(C)p.r(U)p.r(C)p.r(G)p.r(A)p.r(C)p.r(T)p.r(T)}|RNA2{r(G)p.r(U)p.r(C)p.r(G)p.r(A)p.r(G)p.r(G)p.r(G)p.r(U)p.r(A)p.r(G)p.r(C)p.r(G)p.r(A)p.r(G)p.r(C)p.r(C)p.r(G)p.r(U)p.r(T)p.r(T)}$$$RNA1{StrandType:ss}|RNA2{StrandType:as}$	83%
RNA1{r(G)p.r(A)p.r(A)p.r(A)p.r(C)p.m(U)p.m(G)p.r(G)p.m(U)p.r(A)p.r(C)p.r(U)p.r(U)p.r(U)p.r(C)p.r(C)p.r(C)p.r(C)p.r(C)p.r(T)p.r(T)}|RNA2{r(G)p.r(G)p.r(G)p.r(G)p.r(G)p.r(A)p.r(A)p.r(A)p.r(G)p.m(U)p.r(A)p.r(C)p.r(C)p.r(A)p.r(G)p.r(U)p.r(U)p.r(U)p.r(C)p.r(T)p.r(T)}$$$RNA1{StrandType:ss}|RNA2{StrandType:as}$	88%
RNA1{m(G)p.r(C)p.m(U)p.r(U)p.m(U)p.r(A)p.m(A)p.r(G)p.m(G)p.r(A)p.m(A)p.r(C)p.m(U)p.r(G)p.m(G)p.r(A)p.m(A)p.r(G)p.m(G)p.r(T)p.r(T)}|RNA2{r(C)p.m(C)p.r(U)p.m(U)p.r(C)p.m(C)p.r(A)p.m(G)p.r(U)p.m(U)p.r(C)p.r(C)p.r(U)p.r(U)p.r(A)p.r(A)p.r(A)p.r(G)p.r(C)p.r(T)p.r(T)}$$$RNA1{StrandType:ss}|RNA2{StrandType:as}$	25%
RNA1{m(G)p.r(G)p.m(A)p.r(A)p.m(G)p.r(U)p.m(A)p.r(A)p.m(G)p.r(G)p.m(A)p.r(C)p.m(C)p.r(A)p.m(G)p.r(A)p.m(G)p.r(A)p.m(C)p.r(T)p.r(T)}|RNA2{m(G)p.r(U)p.r(C)p.r(U)p.r(C)p.r(U)p.m(G)p.m(G)p.r(U)p.r(C)p.r(C)p.r(U)p.r(U)p.r(A)p.r(C)p.r(U)p.r(U)p.r(C)p.r(C)p.r(T)p.r(T)}$$$RNA1{StrandType:ss}|RNA2{StrandType:as}$	23%
RNA1{[lna](T)p.r(G)p.r(A)p.r(G)p.r(A)p.r(G)p.r(A)p.r(A)p.r(A)p.r(G)p.r(C)p.r(A)p.r(C)p.r(A)p.r(G)p.r(A)p.r(A)p.r(A)p.r(A)p.[lna](T)p.[lna](T)}|RNA2{[lna](T)p.r(U)p.r(U)p.r(U)p.r(C)p.r(U)p.r(G)p.r(U)p.r(G)p.r(C)p.r(U)p.r(U)p.r(U)p.r(C)p.r(U)p.r(C)p.r(U)p.r(C)p.r(A)p.[lna](T)p.[lna](T)}$$$RNA1{StrandType:ss}|RNA2{StrandType:as}$	67% and 72%
RNA1{r(C)p.[fl2r](U)p.r(A)p.r(A)p.r(G)p.r(C)p.r(C)p.r(U)p.r(G)p.r(U)p.r(U)p.r(U)p.r(C)p.r(U)p.r(U)p.r(C)p.r(C)p.r(U)p.r(C)p.r(T)p.r(T)}|RNA2{r(G)p.r(A)p.r(G)p.r(G)p.r(A)p.r(A)p.r(G)p.r(A)p.r(A)p.r(A)p.r(C)p.r(A)p.r(G)p.r(G)p.r(C)p.r(U)p.r(U)p.r(A)p.r(G)p.r(T)p.r(T)}$$$RNA1{StrandType:ss}|RNA2{StrandType:as}$	82%
RNA1{r(C)p.r(U)p.r(U)p.r(A)p.r(C)p.r(G)p.r(C)p.r(U)p.r(G)p.r(A)p.r(G)p.r(U)p.r(A)p.r(C)p.r(U)p.r(U)p.r(C)p.r(G)p.r(A)p.r(T)p.r(T)}|RNA2{r(U)p.r(C)p.r(G)p.r(A)p.r(A)p.r(G)p.r(U)p.r(A)p.r(C)p.r(U)p.r(C)p.r(A)p.r(G)p.r(C)p.r(G)p.r(U)p.r(A)p.[lna](A)p.r(G)p.r(T)p.r(T)}$$$RNA1{StrandType:ss}|RNA2{StrandType:as}$	92%
RNA1{r(G)p.m(C)p.r(A)p.r(A)p.r(G)p.r(U)p.r(G)p.r(G)p.r(C)p.r(A)p.r(A)p.r(G)p.r(A)p.r(G)p.r(G)p.r(A)p.r(U)p.m(U)p.r(A)p.r(T)p.r(T)}|RNA2{m(U)p.r(A)p.r(A)p.r(U)p.r(C)p.r(C)p.r(U)p.r(C)p.r(U)p.m(U)p.r(G)p.r(C)p.m(C)p.r(A)p.r(C)p.r(U)p.m(U)p.r(G)p.r(C)p.r(T)p.r(T)}$$$RNA1{StrandType:ss}|RNA2{StrandType:as}$	68%
RNA1{r(C)p.r(G)p.r(U)p.r(A)p.r(C)p.r(G)p.r(C)p.r(G)p.r(G)p.r(A)p.r(A)p.r(U)p.r(A)p.r(C)p.r(U)p.r(U)p.r(C)p.r(G)p.r(A)p.r(T)p.r(T)}|RNA2{[s4r](U)p.[s4r](C)p.r(G)p.r(A)p.r(A)p.r(G)p.[s4r](U)p.r(A)p.[s4r](U)p.[s4r](U)p.[s4r](C)p.[s4r](C)p.r(G)p.[s4r](C)p.r(G)p.[s4r](U)p.r(A)p.[s4r](C)p.r(G)p.r(T)p.r(T)}$$$RNA1{StrandType:ss}|RNA2{StrandType:as}$	27.5%
RNA1{r(G)p.r(C)p.r(G)p.r(C)p.r(U)p.r(G)p.r(C)p.r(U)p.r(G)p.r(G)p.r(U)p.r(G)p.r(C)p.r(C)p.r(A)p.r(A)p.r(C)p.r(C)p.r(C)p.d(T)p.d(T)}|RNA2{r(G)p.r(G)p.r(G)p.r(U)p.r(U)p.r(G)p.r(G)p.r(C)p.r(A)p.r(C)p.r(C)p.r(A)p.r(G)p.r(C)p.r(A)p.r(G)p.r(C)p.r(G)p.r(C)p.d(T)p.d(T)}$$$RNA1{StrandType:ss}|RNA2{StrandType:as}$	74%
RNA1{m(U)p.r(C)p.m(U)p.r(C)p.m(G)p.r(U)p.m(A)p.r(A)p.m(G)p.r(G)p.m(A)p.r(C)p.m(G)p.r(A)p.m(A)p.r(A)p.m(C)p.r(G)p.r(A)p.r(T)p.r(T)}|RNA2{r(U)p.r(C)p.r(G)p.r(U)p.r(U)p.r(U)p.r(C)p.r(G)p.r(U)p.r(C)p.r(C)p.r(U)p.r(U)p.r(A)p.r(C)p.r(G)p.r(A)p.r(G)p.r(A)p.r(T)p.r(T)}$$$RNA1{StrandType:ss}|RNA2{StrandType:as}$	34%
